Earlier results, collected in patent US20110020252A1, “METHOD OF LONG LASTING HUMAN SKIN TANNING” (priority 2010, published 2011).

Test system: gram-positive cocci (including methicillin-resistant Staphylococcus aureus-MSRA), some gram-negative organisms, Legionella, many mycobacterium and some fungi
Conditions: cited from earlier work

CO[C@H]1/C=C/O[C@@]2(C)Oc3c(C)c(O)c4c(O)c(c(/C=N/N5CCN(C)CC5)c(O)c4c3C2=O)NC(=O)/C(C)=C\C=C\[C@H](C)[C@H](O)[C@@H](C)[C@@H](O)[C@@H](C)[C@H](OC(C)=O)[C@@H]1C [Rifampin]
antimicrobial activity: good activity
